Data from ChEMBL document CHEMBL3044561, “A rapid access to new coumarinyl chalcone and substituted chromeno[4,3-c]pyrazol-4(1H)-ones and their antibacterial and DPPH radical scavenging activities” (Med Chem Res, 2011).

What was measured:
Staphylococcus aureus = test: Antibacterial activity against Staphylococcus aureus NCTC 7447 at 1 mg/disk after 24 hr by paper disk diffusion method; type: functional
[1] = tested on: Radical scavenging activity; test: Antioxidant activity assessed as DPPH free radical scavenging activity after 30 min; type: functional

| Compound | diameter of the inhibition zone (DIZ) (Staphylococcus aureus) [mm] | IC50 [1] [nM] | inhibition zone (IZ) (Staphylococcus aureus) [mm] |
| --- | --- | --- | --- |
| O=c1oc2ccccc2c2[nH]ncc12 | 14 | – | – |
| O=C(/C=C/c1ccc([N+](=O)[O-])cc1)c1c(O)c2ccccc2oc1=O | 16 | 3210 | – |
| COc1cc(/C=C/C(=O)c2c(O)c3ccccc3oc2=O)cc(OC)c1OC | 11 | 2290 | – |
| O=c1oc2ccccc2c2c1cnn2-c1ccccc1 | 19 | – | – |
| CN(C)c1ccc(/C=C/C(=O)c2c(O)c3ccccc3oc2=O)cc1 | 11 | 2390 | – |
| Cn1ncc2c(=O)oc3ccccc3c21 | 17 | – | – |
| O=C(/C=C/c1ccccc1)c1c(O)c2ccccc2oc1=O | 10 | 2150 | – |
| COc1ccc(/C=C/C(=O)c2c(O)c3ccccc3oc2=O)cc1 | 14 | 2810 | – |
| O=C(/C=C/c1ccc(Br)cc1)c1c(O)c2ccccc2oc1=O | 9 | 2250 | – |
| Cc1ccc(/C=C/C(=O)c2c(O)c3ccccc3oc2=O)cc1 | 13 | 2070 | – |
| O=C(/C=C/c1cccc2ccccc12)c1c(O)c2ccccc2oc1=O | 8 | 2390 | – |
| O=C(/C=C/c1ccc(F)cc1)c1c(O)c2ccccc2oc1=O | 13 | 2230 | – |
| GENTAMICIN | – | – | 15 |
